We go through three molecules from ChEMBL document CHEMBL1131371, “H-phosphonate derivatives as novel peptide deformylase inhibitors” (Bioorg Med Chem Lett, 1998).

For one data set, the target named is T1, Peptide deformylase (Escherichia coli, UniProt Q9JN24).
T1 sequence (Q9JN24 whole entry): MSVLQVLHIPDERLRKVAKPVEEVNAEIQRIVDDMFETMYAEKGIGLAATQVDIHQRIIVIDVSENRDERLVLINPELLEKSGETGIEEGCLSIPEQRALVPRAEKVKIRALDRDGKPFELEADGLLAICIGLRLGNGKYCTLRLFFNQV
Put plainly: Compound was evaluated for inhibitory activity against Peptide deformylase.

Data set [1] can be described thus: Compound was evaluated for inhibitory activity against Zn2+ deformylase.
Substrate in data set [2]: CCCC[C@H](O[PH](=O)O)C(=O)N[C@@H](CC(C)C)C(=O)Nc1ccc([N+](=O)[O-])cc1
Description: Apparent KM against enzyme peptide deformylase (PDF)

In turn, `CCCC[C@@H](O[PH](=O)O)C(=O)N[C@@H](CC(C)C)C(=O)Nc1ccc([N+](=O)[O-])cc1` gave a Ki on Peptide deformylase of 125 µM.
Take `CCCC[C@H](O[PH](=O)O)C(=O)N[C@@H](CC(C)C)C(=O)Nc1ccc([N+](=O)[O-])cc1`: the Ki worked out at 37 µM on Peptide deformylase and 76 µM in data set [1].

B1: Peptide deformylase, mitochondrial (Homo sapiens), Q9HBH1 (protein)
chain: MARLWGALSLWPLWAAVPWGGAAAVGVRACSSTAAPDGVEGPALRRSYWRHLRRLVLGPPEPPFSHVCQVGDPVLRGVAAPVERAQLGGPELQRLTQRLVQVMRRRRCVGLSAPQLGVPRQVLALELPEALCRECPPRQRALRQMEPFPLRVFVNPSLRVLDSRLVTFPEGCESVAGFLACVPRFQAVQISGLDPNGEQVVWQASGWAARIIQHEMDHLQGCLFIDKMDSRTFTNVYWMKVND
In the case of B1, the Km in data set [2] is 20 µM.
